# Assay results taken from patent publication US20110045101A1, “FUNGICIDAL SUBSTITUTED AZOLES” (E.I. Du Pont De Nemours and Company, priority 2009, published 2011).
# Where two headings read alike, the source gives them in different places.
# Legend:
# Type in all cases: in vivo
# [1] = tested on: Plasmopara viticola; test: Test A: grape downy mildew, test suspension sprayed after inoculation of grape seedlings, visual disease rating; details: 200 ppm, 100 = 100% disease control
# Text: General protocol for preparing test suspensions for Tests A-J: The test compounds were first dissolved in acetone in an amount equal to 3% of the final volume and then suspended at the desired concentration (in ppm) in acetone and purified water (50/50 mix) containing 250 ppm of the surfactant Trem® 014 (polyhydric alcohol esters). The resulting test suspensions were then used in tests A-J. Spraying a 200 ppm test suspension to the point of run-off on the test plants was the equivalent of a rate of 500 g/ha. […] Grape seedlings were inoculated with a spore suspension of Plasmopara viticola (the causal agent of grape downy mildew) and incubated in a saturated atmosphere at 20° C. for 24 h. After a short drying period, the grape seedlings were sprayed with the test suspension to the point of run-off and then moved to a growth chamber at 20° C. for 5 days, after which time the grape seedlings were placed back into a saturated atmosphere at 20° C. for 24 h. Upon removal, visual disease ratings were made. […] A dash (-) indicates no test results.
# [2] = tested on: Rhizoctonia solani; test: Test B: turf brown patch on bentgrass seedlings, sprayed the day before inoculation, visual disease rating; details: 200 ppm, 100 = 100% disease control
# Text: General protocol for preparing test suspensions for Tests A-J: The test compounds were first dissolved in acetone in an amount equal to 3% of the final volume and then suspended at the desired concentration (in ppm) in acetone and purified water (50/50 mix) containing 250 ppm of the surfactant Trem® 014 (polyhydric alcohol esters). The resulting test suspensions were then used in tests A-J. Spraying a 200 ppm test suspension to the point of run-off on the test plants was the equivalent of a rate of 500 g/ha. […] The test suspension was sprayed to the point of run-off on bentgrass (Agrostis sp.) seedlings. […] A dash (-) indicates no test results. All results are for 200 ppm except where followed by “*”, which indicates 40 ppm.
# [3] = tested on: Botrytis cinerea; test: Test C: tomato Botrytis on tomato seedlings, sprayed the day before inoculation, visual disease rating; details: 200 ppm, 100 = 100% disease control; for pest or weed control at 200 ppm: Botrytis cinerea, 120 h
# How it was run: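 Tomato seedlings were sprayed until run-off with test suspensions in acetone/water (50/50) carrying 250 ppm polyhydric alcohol ester surfactant. Standard dose was 200 ppm, with 40 ppm for marked entries.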
# [4] = tested on: Alternaria solani; test: Test D: tomato early blight, sprayed the day before inoculation, visual disease rating; details: 200 ppm, 100 = 100% disease control; for pest or weed control at 200 ppm: Alternaria solani, 168 h
# How it was run: (§1)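 200 ppm run-off spray (500 g/ha equivalent); * = 40 ppm. Vehicle: acetone/water 50/50, 250 ppm Trem® 014.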
# [5] = tested on: Phytophthora infestans; details: 200 ppm, 100 = 100% disease control
# [6] = tested on: Septoria nodorum; test: Test F: wheat glume blotch on wheat seedlings, sprayed the day before inoculation, visual disease rating; details: 200 ppm, 100 = 100% disease control; for pest or weed control at 200 ppm: Parastagonospora nodorum, 264 h
# How it was run: as §1
# [7] = tested on: Septoria tritici; test: Test G: wheat leaf blotch on wheat seedlings, sprayed the day before inoculation, visual disease rating; details: 200 ppm, 100 = 100% disease control; for pest or weed control at 200 ppm: Zymoseptoria tritici, 504 h
# How it was run: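 Wheat seedlings were sprayed to run-off with test suspension (acetone/water plus surfactant), generally 200 ppm (≈500 g/ha), or 40 ppm where marked. Septoria tritici spores were inoculated the next day; plants were held 48 h at 24°C in saturated atmosphere, then 19 days at 20°C before visual disease rating.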
# [8] = tested on: Puccinia recondita f. sp. tritici; test: Test I: wheat leaf rust on wheat seedlings, sprayed the day before inoculation, visual disease rating; details: 200 ppm, 100 = 100% disease control; for pest or weed control at 200 ppm: Puccinia recondita, 168 h
# How it was run: as §1
# [9] = tested on: Erysiphe graminis f. sp. tritici; test: Test J: wheat powdery mildew on wheat seedlings, sprayed the day before inoculation, visual disease rating; details: 200 ppm, 100 = 100% disease control; for pest or weed control at 200 ppm: Blumeria graminis, 168 h
# How it was run: as §1
# [10] = tested on: Puccinia recondita f. sp. tritici; test: Test H: wheat leaf rust, test suspension sprayed after inoculation of wheat seedlings, visual disease rating; details: 200 ppm; 100 = 100% disease control, 0 = no control relative to controls
# How it was run: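 Wheat seedlings inoculated with P. recondita spores, held 24 h saturated at 20 °C, then 2 days in growth chamber at 20 °C; compound suspension (acetone/water with Trem 014) sprayed to run-off afterwards. Rated visually; 200 ppm (≈500 g/ha) unless marked *, which denotes 40 ppm.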
# [11] = 0 = no control relative to controls
Compound,"Test A disease control rating [1, 11] [%]","Test B disease control rating [2, 11] [%]","Test C disease control rating [3, 11] [%]","Test D disease control rating [4, 11] [%]","Test E disease control rating [5, 11] [%]","Test F disease control rating [6, 11] [%]","Test G disease control rating [7, 11] [%]","Test I disease control rating [8, 11] [%]","Test J disease control rating [9, 11] [%]",Test B disease control rating ([2]; 0 = no control) [%],Test C disease control rating ([3]; 0 = no control) [%],Test D disease control rating ([4]; 0 = no control) [%],Test F disease control rating ([6]; 0 = no control) [%],Test G disease control rating ([7]; 0 = no control) [%],Test I disease control rating ([8]; 0 = no control) [%],Test J disease control rating ([9]; 0 = no control) [%],other results
"2-bromo-1-(4-chlorophenyl)-5-(2,6-difluorophenyl)-2-methyl-1H-imidazole [Compound 740]",37,99,100,100,0,100,100,100,100,,,,,,,,
"Cc1ncc(-c2ccc(F)cc2)n1-c1ccc(Cl)cc1 [Compound 4, 1-(4-chlorophenyl)-5-(4-fluorophenyl)-2-methyl-1H-imidazole]",0,18,,,0,,,,,,,,,,,,"pest or weed control at 200 ppm [3, 11]: 67%; pest or weed control at 200 ppm [4, 11]: 0%; pest or weed control at 200 ppm [6, 11]: 0%; pest or weed control at 200 ppm [7, 11]: 93%; pest or weed control at 200 ppm [8, 11]: 79%; pest or weed control at 200 ppm [9, 11]: 94%"
"Cc1nc(Cl)c(-c2ccc(F)cc2)n1-c1ccc(Cl)cc1 [Compound 5, 4-chloro-1-(4-chlorophenyl)-5-(4-fluorophenyl)-2-methyl-1H-imidazole]",0,38,,,0,,,,,,,,,,,,"pest or weed control at 200 ppm [3, 11]: 98%; pest or weed control at 200 ppm [4, 11]: 99%; pest or weed control at 200 ppm [6, 11]: 0%; pest or weed control at 200 ppm [7, 11]: 100%; pest or weed control at 200 ppm [8, 11]: 88%; pest or weed control at 200 ppm [9, 11]: 99%"
Cc1nn(C)c(-c2ccc(Cl)c(F)c2)c1-c1c(F)cccc1F [compound 67],7,98,44,99,0,0,80,0,99,,,,,,,,
Cc1nn(C)c(-c2ccc(Cl)c(F)c2)c1-c1c(F)cc(F)cc1F [compound 104],,0,92,98,0,0,32,0,95,,,,,,,,
COc1cc(F)c(-c2c(C)nn(C)c2-c2ccc(Cl)c(OC)c2)c(F)c1 [compound 111],,81,99,99,0,100,100,89,99,,,,,,,,
COc1cc(F)c(-c2c(C)nn(C)c2-c2ccc(Cl)c(F)c2)c(F)c1 [compound 115],,99,99,99,0,98,99,98,100,,,,,,,,
Fc1ccc(-n2cnc(Cl)c2-c2ccc(F)cc2Cl)cc1 [compound 178],,,,,,,,,,0,99,99,0,100,74,100,Test A disease control rating ([1]; 0 = no control): 9%
Cc1ccc(-n2cnc(Cl)c2-c2ccc(F)cc2Cl)cc1 [compound 179],,,,,,,,,,0,99,9,0,98,99,99,Test A disease control rating ([1]; 0 = no control): 0%; Test E disease control rating ([5]; 0 = no control): 0%
Fc1ccc(-n2cnc(Cl)c2-c2c(F)cccc2Cl)cc1 [compound 180],,,,,,,,,,88,99,99,0,98,99,100,Test A disease control rating ([1]; 0 = no control): 0%
Cc1ccc(-n2cnc(Cl)c2-c2c(F)cccc2Cl)cc1 [compound 181],,,,,,,,,,24,99,0,0,94,98,99,
Fc1ccc(-c2c(Cl)ncn2-c2ccc(Cl)c(F)c2)c(Cl)c1 [compound 191],,,,,,,,,,0,99,26,0,97,80,93,Test A disease control rating ([1]; 0 = no control): 0%; Test E disease control rating ([5]; 0 = no control): 29%
Fc1cc(-n2cnc(Cl)c2-c2c(F)cccc2Cl)ccc1Cl [compound 192],,,,,,,,,,21,99,16,0,94,84,99,Test A disease control rating ([1]; 0 = no control): 0%; Test E disease control rating ([5]; 0 = no control): 0%
COc1cc(F)c(-c2c(-c3ccc(Cl)cc3)c(OC)nn2C)c(F)c1 [compound 578],0,58,98,37,0,0,100,74,98,,,,,,,,
Cc1cc(C)nc(-c2cnnn2-c2cc(Cl)cc(Cl)c2)n1 [compound 644],0,,94,0,0,0,0,0,0,,,,,,,,
COc1ccc(F)c(-c2c(Cl)nc(C)n2-c2ccc(Cl)nc2)c1F [compound 738],,,100,100,,100,100,100,100,,,,,,,,Test H disease control rating [10]: 96%
COc1cc(F)c(-c2c(Cl)nc(C)n2-c2ccc(Cl)nc2)c(F)c1 [compound 739],,,100,100,,100,100,100,100,,,,,,,,Test H disease control rating [10]: 100%
